Measured values: patent US12378241B2, “Pyridine derivative as FGFR and VEGFR dual inhibitors” (CGeneTech (Suzhou,China) CO., Ltd., priority 2019, dated 2025)
Where a name gives a salt, the structure may show the parent alone. Read-outs that look alike come from different tables or passages of the source. One block for each compound: values may come before it.

Tests used:
[1] = Evaluation of the pharmacokinetics in female Balb/c mice (IV and PO); format: in vivo; conditions: for Tlast / AUC(0-inf) / AUC(0-t) / clearance / half-life / MRT last / Vd / bioavailability / Tmax / C0 / Cmax: female Balb/c mice; for AUC(0-inf) / AUC(0-t) / clearance / half-life / MRT last / Vd / bioavailability / Tmax / C0 / Cmax: mouse, plasma; for MRT last: read-out: MRT0-last; for Vd: read-out: Vdss; for bioavailability: read-out: F (bioavailability)
Method: […] […] About 30 μL blood samples were collected from the jugular vein at 0.0833, 0.25, 0.5, 1.0, 2.0, 4.0, 8.0, 24 h after administration and from the tail vein at 0.25, 0.5, 1.0, 2.0, 4.0, 8.0, 24 h after administration, and the blood samples were put in an anticoagulation tube containing EDTA-K2, the plasma was separated by centrifugation. The LC-MS/MS method was used to determine the blood drug concentration, the WinNonlin™ Version 6.3 (Pharsight, Mountain View, CA) pharmacokinetic software was used to calculate the relevant pharmacokinetic parameters by the non-compartmental model linear logarithmic ladder method.

human VEGFR2 = human VEGFR2 (Homo sapiens (Human), UniProt P35968); assay: 33P isotope-labeled kinase activity test (Reaction Biology Corp), VEGFR2; format: biochemical; conditions: ATP 10 μM
Sequence of human VEGFR2 (P35968 20-1356): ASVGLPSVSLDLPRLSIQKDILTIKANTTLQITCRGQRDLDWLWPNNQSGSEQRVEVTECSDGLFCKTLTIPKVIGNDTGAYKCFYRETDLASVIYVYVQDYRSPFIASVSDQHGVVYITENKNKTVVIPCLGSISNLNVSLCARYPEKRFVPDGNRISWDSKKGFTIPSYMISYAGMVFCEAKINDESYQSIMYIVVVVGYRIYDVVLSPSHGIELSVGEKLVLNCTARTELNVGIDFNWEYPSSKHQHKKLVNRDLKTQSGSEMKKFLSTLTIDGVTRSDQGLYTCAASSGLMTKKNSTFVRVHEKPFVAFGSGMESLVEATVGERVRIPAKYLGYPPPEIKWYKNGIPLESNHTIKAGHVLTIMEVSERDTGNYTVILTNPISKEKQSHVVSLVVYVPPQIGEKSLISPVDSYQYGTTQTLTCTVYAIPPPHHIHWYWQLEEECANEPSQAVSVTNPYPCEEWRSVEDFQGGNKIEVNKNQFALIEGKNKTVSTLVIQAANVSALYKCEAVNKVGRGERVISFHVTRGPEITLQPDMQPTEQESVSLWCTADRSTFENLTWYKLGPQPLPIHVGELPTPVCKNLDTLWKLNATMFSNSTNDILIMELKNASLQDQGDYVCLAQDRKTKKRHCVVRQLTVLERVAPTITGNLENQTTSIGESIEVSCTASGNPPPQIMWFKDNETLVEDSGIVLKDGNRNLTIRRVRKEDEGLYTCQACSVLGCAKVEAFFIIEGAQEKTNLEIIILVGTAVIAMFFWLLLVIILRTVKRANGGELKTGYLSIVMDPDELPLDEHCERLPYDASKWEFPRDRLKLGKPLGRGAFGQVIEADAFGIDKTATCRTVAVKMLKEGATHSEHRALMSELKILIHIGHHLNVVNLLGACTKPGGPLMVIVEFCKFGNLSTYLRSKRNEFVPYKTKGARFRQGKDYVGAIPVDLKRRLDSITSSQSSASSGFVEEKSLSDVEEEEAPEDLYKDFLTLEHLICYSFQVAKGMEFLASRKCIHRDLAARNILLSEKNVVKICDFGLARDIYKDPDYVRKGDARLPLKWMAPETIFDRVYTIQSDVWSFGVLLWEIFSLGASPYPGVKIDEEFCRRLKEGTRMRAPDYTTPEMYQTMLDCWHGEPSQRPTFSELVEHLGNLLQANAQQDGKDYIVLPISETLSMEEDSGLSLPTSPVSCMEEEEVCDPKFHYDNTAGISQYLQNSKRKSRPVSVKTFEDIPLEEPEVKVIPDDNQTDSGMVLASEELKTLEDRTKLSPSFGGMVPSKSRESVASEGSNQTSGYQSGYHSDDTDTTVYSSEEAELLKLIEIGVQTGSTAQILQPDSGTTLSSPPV
Method: (§1) The IC50 value was determined using ^33P isotope-labeled kinase activity test (Reaction Biology Corp) to evaluate the inhibitory ability of the compounds to be tested on human FGFR1, FGFR2 and VEGFR2.
(§2) Buffer conditions: 20 mM Hepes (pH 7.5), 10 mM MgCl2, 1 mM EGTA, 0.02% Brij35, 0.02 mg/mL BSA, 0.1 mM Na3VO4, 2 mM DTT, 1% DMSO.
(§3) Test steps: At room temperature, the compounds to be tested were dissolved in DMSO to prepare a 10 mM solution for use. The substrate was dissolved in the newly-prepared buffer, and the kinase to be tested was added thereto and mixed well. The DMSO solution in which the compounds to be tested were dissolved was added to the above-mentioned homogeneous reaction mixture using acoustic technology (Echo 550). […] After incubating for 15 minutes, ^33P-ATP (activity: 0.01 μCi/μL, with corresponding concentration listed in Table 4) was added to the reaction mixture to start the reaction. […] The kinase activity data was expressed by comparing the kinase activity of the groups containing the compounds to be tested with that of the blank group (containing only DMSO).

human FGFR2 = human FGFR2 (Homo sapiens (Human), UniProt P21802); assay: 33P isotope-labeled kinase activity test (Reaction Biology Corp), FGFR2; format: biochemical; conditions: ATP 5 μM
Sequence of human FGFR2 (P21802 22-821): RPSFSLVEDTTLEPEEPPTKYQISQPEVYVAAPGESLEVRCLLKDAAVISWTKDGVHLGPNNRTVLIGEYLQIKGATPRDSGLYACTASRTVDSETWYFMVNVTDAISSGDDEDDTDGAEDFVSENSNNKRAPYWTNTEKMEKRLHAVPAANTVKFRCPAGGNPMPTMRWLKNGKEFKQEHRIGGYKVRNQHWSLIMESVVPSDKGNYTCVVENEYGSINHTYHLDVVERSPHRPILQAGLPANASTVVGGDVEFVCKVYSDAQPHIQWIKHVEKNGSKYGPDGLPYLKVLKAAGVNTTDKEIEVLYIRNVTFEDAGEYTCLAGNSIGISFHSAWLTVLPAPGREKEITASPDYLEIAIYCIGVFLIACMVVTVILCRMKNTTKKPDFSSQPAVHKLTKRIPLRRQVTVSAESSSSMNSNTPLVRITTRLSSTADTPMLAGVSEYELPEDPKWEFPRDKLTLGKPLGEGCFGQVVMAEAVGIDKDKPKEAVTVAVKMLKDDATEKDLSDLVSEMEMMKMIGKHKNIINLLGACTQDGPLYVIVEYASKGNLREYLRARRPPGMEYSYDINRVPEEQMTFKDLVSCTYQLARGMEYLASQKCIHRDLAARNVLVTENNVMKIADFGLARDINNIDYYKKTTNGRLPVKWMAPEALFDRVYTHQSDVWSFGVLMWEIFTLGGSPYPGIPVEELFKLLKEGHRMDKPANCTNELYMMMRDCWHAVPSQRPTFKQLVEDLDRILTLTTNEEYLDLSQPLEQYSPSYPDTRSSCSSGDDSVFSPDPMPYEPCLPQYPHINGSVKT
Method: as §1, §2, §3

human FGFR1 = human FGFR1 (Homo sapiens (Human), UniProt P11362); assay: 33P isotope-labeled kinase activity test (Reaction Biology Corp), FGFR1; format: biochemical; conditions: ATP 5 μM
Sequence of human FGFR1 (P11362 22-822): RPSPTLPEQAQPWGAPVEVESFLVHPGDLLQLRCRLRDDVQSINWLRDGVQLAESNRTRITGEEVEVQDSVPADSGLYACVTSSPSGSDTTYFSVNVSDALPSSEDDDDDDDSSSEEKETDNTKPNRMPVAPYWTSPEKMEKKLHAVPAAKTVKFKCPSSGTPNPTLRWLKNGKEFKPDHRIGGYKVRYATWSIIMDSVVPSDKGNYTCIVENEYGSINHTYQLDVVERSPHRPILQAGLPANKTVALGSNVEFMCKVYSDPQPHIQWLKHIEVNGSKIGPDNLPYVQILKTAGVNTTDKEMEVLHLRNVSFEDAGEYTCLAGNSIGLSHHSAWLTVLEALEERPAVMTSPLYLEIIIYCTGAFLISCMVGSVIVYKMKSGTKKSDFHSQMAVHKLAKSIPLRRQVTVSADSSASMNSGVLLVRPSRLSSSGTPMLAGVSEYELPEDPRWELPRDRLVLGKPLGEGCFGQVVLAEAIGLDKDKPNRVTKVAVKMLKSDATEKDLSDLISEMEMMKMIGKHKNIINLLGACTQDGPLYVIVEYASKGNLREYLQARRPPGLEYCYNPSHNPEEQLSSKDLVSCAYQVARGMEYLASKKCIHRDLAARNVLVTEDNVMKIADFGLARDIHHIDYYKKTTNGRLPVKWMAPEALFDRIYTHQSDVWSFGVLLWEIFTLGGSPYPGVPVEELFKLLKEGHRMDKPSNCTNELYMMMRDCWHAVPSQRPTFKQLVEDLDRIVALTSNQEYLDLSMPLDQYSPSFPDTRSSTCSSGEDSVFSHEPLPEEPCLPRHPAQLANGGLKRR
Method: as §1, §2, §3

[2] = system: human gastric cancer SNU-16; assay: Anti-tumor activity in mouse subcutaneous xenograft tumor model of human gastric cancer SNU-16; format: in vivo, nude mice; conditions: PO 10/20/40 mg/kg QD (20 mg/kg from day 8, 40 mg/kg from day 17)
Method: To study the anti-tumor effect of the compounds of the present disclosure in a mouse subcutaneous xenograft tumor model of human gastric cancer SNU-16.
Preparation of tumor tissues: SNU-16 cells were routinely cultured in an RPMI-1640 culture medium containing 10% fetal bovine serum under the conditions of 5% CO2, 37° C. and saturated humidity. According to cell growth, the cells were passaged or refilled 1 to 2 times a week with a passage ratio of 1:3 to 1:4.
SNU-16 cells at the logarithmic growth phase were collected, counted and then resuspended in a 50% serum-free RPMI-1640 culture medium and 50% Matrigel, and cell concentration was adjusted to 4×10^7 cells/mL; the cells were placed in an ice box, and the cell suspension was suctioned with a 1 mL syringe, and subcutaneously injected into the anterior right axillary of nude mice, each animal was inoculated with 200 μL (8×10^6 cells/mouse) to establish a SNU-16 xenograft model. The animal status was observed regularly, and the tumor diameter was measured with an electronic vernier caliper. […]
3) The tumor diameter was measured twice a week to calculate the tumor volume, and the animal body weight was weighed and recorded. […]
The anti-tumor efficacy of the compounds was evaluated by TGI (%) or relative tumor proliferation rate T/C (%). […] The relative tumor volume (RTV) was calculated according to the results of the tumor measurement. […]

Tlast ([1]; IV 2 mg/kg): 8.00 h
AUC of intravenous drug exposure compared with the trifluoroacetate of control compound A ([1]; IV, mice): doubled
Tlast ([1]; PO 10 mg/kg): 8.00 h
oral absorption drug exposure compared with the trifluoroacetate of control compound A ([1]; PO, mice): nearly doubled
AUC(0-inf) ([1]; IV 2 mg/kg): 13.7 µM·h
AUC(0-t) ([1]; IV 2 mg/kg): 13.3 µM·h
clearance ([1]; IV 2 mg/kg): 4.82 mL/min/kg
half-life ([1]; IV 2 mg/kg): 1.6 h
MRT last ([1]; IV 2 mg/kg): 2.07 h
Vd ([1]; IV 2 mg/kg): 0.667 L/kg
bioavailability ([1]; PO 10 mg/kg vs IV 2 mg/kg): 39.4%
AUC(0-inf) ([1]; PO 10 mg/kg): 26.9 µM·h
AUC(0-t) ([1]; PO 10 mg/kg): 23.6 µM·h
Tmax ([1]; PO 10 mg/kg): 1 h
half-life ([1]; PO 10 mg/kg): 2.5 h
MRT last ([1]; PO 10 mg/kg): 3.12 h
C0 ([1]; IV 2 mg/kg): 7530 nM
Cmax ([1]; PO 10 mg/kg): 5300 nM
IC50 (human VEGFR2): 3.82 nM
IC50 (human FGFR2): 2.86 nM
IC50 (human FGFR1): 4.55 nM
SMILES: Cn1cc(-c2ccn3c(-c4cc(NS(=O)(=O)C5CC5)nc(-c5ccc(F)cc5F)c4)cnc3c2)cn1 [Trifluoroacetate salt of compound 1]
plasma clearance rate compared with the trifluoroacetate of control compound A ([1]; IV, mice): nearly decreased the plasma clearance rate by 1 time

IC50 (human VEGFR2): 5580 nM
IC50 (human FGFR1): 724 nM
SMILES: Cn1cc(-c2ccn3c(-c4cc(NS(C)(=O)=O)cc(-c5ccc(F)cc5F)n4)cnc3c2)cn1 [Formate of compound C, reference compound]

SMILES: Cn1cc(-c2ccc3c(c2)ncn3-c2cc(NS(=O)(=O)C3CC3)cc(-c3ccc(F)cc3F)c2)cn1 [Trifluoroacetate of compound A, reference compound]
Tlast ([1]; IV 0.2 mg/kg): 4.00 h
Tlast ([1]; PO 1 mg/kg): 8.00 h
AUC(0-inf) ([1]; IV 0.2 mg/kg): 0.717 µM·h
AUC(0-t) ([1]; IV 0.2 mg/kg): 0.663 µM·h
clearance ([1]; IV 0.2 mg/kg): 9.2 mL/min/kg
half-life ([1]; IV 0.2 mg/kg): 1.08 h
MRT last ([1]; IV 0.2 mg/kg): 1.21 h
Vd ([1]; IV 0.2 mg/kg): 0.85 L/kg
bioavailability ([1]; PO 1 mg/kg vs IV 0.2 mg/kg): 40.3%
AUC(0-inf) ([1]; PO 1 mg/kg): 1.44 µM·h
AUC(0-t) ([1]; PO 1 mg/kg): 1.41 µM·h
Tmax ([1]; PO 1 mg/kg): 1 h
half-life ([1]; PO 1 mg/kg): 1.4 h
MRT last ([1]; PO 1 mg/kg): 2.76 h
C0 ([1]; IV 0.2 mg/kg): 563 nM
Cmax ([1]; PO 1 mg/kg): 469 nM
IC50 (human FGFR1): 22.3 nM

IC50 (human VEGFR2): 24.3 nM
IC50 (human FGFR2): 45.2 nM
SMILES: CCOC(=O)Nc1cc(-c2cnc3cc(-c4cnn(C)c4)ccn23)cc(-c2ccc(F)cc2C)n1 [Trifluoroacetate salt of compound 4]

IC50 (human VEGFR2): 3.73 nM
IC50 (human FGFR2): 4.92 nM
SMILES: Cn1cc(-c2ccn3c(-c4cc(NCC(C)(C)O)nc(-c5ccc(F)cc5F)c4)cnc3c2)cn1 [Compound 9]

IC50 (human VEGFR2): 11.8 nM
IC50 (human FGFR2): 22.6 nM
SMILES: Cn1cc(-c2ccc3c(c2)ncn3-c2cc(NS(C)(=O)=O)cc(-c3ccc(F)cc3F)c2)cn1 [Trifluoroacetate of compound B, reference compound]

IC50 (human VEGFR2): 1.99 nM
IC50 (human FGFR2): 3.26 nM
SMILES: CCOC(=O)Nc1cc(-c2cnc3cc(-c4cnn(C)c4)ccn23)cc(-c2ccc(F)cc2F)n1 [Trifluoroacetate salt of compound 3]

IC50 (human VEGFR2): 67.3 nM
IC50 (human FGFR2): 46.1 nM
SMILES: Cc1cc(F)ccc1-c1cc(-c2cnc3cc(-c4cnn(C)c4)ccn23)cc(NS(=O)(=O)C2CC2)n1 [Trifluoroacetate salt of compound 2]

IC50 (human VEGFR2): 8.09 nM
IC50 (human FGFR2): 7.36 nM
SMILES: CCS(=O)(=O)Nc1cc(-c2cnc3cc(-c4cnn(C)c4)ccn23)cc(-c2ccc(F)cc2F)n1 [Trifluoroacetate salt of compound 6]

IC50 (human VEGFR2): 11.1 nM
SMILES: Cc1c(-c2ccn3c(-c4cc(NS(C)(=O)=O)nc(-c5ccc(F)cc5F)c4)cnc3c2)cnn1C [Trifluoroacetate salt of compound 13]

IC50 (human FGFR2): 17.1 nM
SMILES: Cn1cc(-c2ccn3c(-c4cc(NC5CCOCC5)nc(-c5ccc(F)cc5F)c4)cnc3c2)cn1 [Compound 10]

Tlast ([1]; IV 0.2 mg/kg): 4.00 h
Tlast ([1]; PO 1 mg/kg): 8.00 h
AUC(0-inf) ([1]; IV 0.2 mg/kg): 0.871 µM·h
AUC(0-t) ([1]; IV 0.2 mg/kg): 0.81 µM·h
clearance ([1]; IV 0.2 mg/kg): 7.96 mL/min/kg
half-life ([1]; IV 0.2 mg/kg): 0.968 h
MRT last ([1]; IV 0.2 mg/kg): 1.08 h
Vd ([1]; IV 0.2 mg/kg): 0.661 L/kg
bioavailability ([1]; PO 1 mg/kg vs IV 0.2 mg/kg): 59.3%
AUC(0-inf) ([1]; PO 1 mg/kg): 2.58 µM·h
AUC(0-t) ([1]; PO 1 mg/kg): 2.53 µM·h
Tmax ([1]; PO 1 mg/kg): 1 h
half-life ([1]; PO 1 mg/kg): 1.33 h
MRT last ([1]; PO 1 mg/kg): 2.35 h
C0 ([1]; IV 0.2 mg/kg): 735 nM
Cmax ([1]; PO 1 mg/kg): 973 nM
IC50 (human VEGFR2): 2.94 nM
IC50 (human FGFR2): 3.22 nM
SMILES: Cn1cc(-c2ccn3c(-c4cc(NS(C)(=O)=O)nc(-c5ccc(F)cc5F)c4)cnc3c2)cn1 [Trifluoroacetate salt of compound 7]
T/C (%) (relative tumor proliferation rate) D25 [2]: 31%
TGI (%) (tumor growth inhibition rate) D25 [2]: 69%

IC50 (human VEGFR2): 14.7 nM
IC50 (human FGFR2): 7.18 nM
SMILES: CCCS(=O)(=O)Nc1cc(-c2cnc3cc(-c4cnn(C)c4)ccn23)cc(-c2ccc(F)cc2F)n1 [Trifluoroacetate salt of compound 8]

IC50 (human VEGFR2): 7.57 nM
IC50 (human FGFR2): 2.27 nM
SMILES: Cn1cc(-c2ccn3c(-c4cc(NCC5COC(C)(C)O5)nc(-c5ccc(F)cc5F)c4)cnc3c2)cn1 (stereo not drawn) [Compound 11]

IC50 (human VEGFR2): 9.27 nM
IC50 (human FGFR2): 19.4 nM
SMILES: CCOC(=O)Nc1cc(-c2cnc3cc(-c4cnn(C)c4C)ccn23)cc(-c2ccc(F)cc2F)n1 [Trifluoroacetate salt of compound 12]
